US4771041A, “Method for combating virus infection” (priority 1976, dated 1988)

How the values were obtained:
[1] = biological target: type A influenza virion-associated RNA polymerase (Influenza A virus (A/nt/60/1968(H3N2)), UniProt P03432); experiment: Inhibition of type A influenza virion-associated RNA polymerase; assay type: biochemical, Influenza A2 Aichi virus; conditions: mean of two experiments
Description: Polymerases, nucleic acid template nucleoside triphosphates, of which guanosine triphosphate is tritium-labelled, salt and buffer are mixed at 0° C. in a total volume of 125 μl (for herpes DNA polymerase, see F. below). The concentrations of the nucleoside triphosphates UTP (uridine triphosphate), CTP (cytidinetriphosphate), GTP (guanosinetriphosphate) and ATP (adenosinetriphosphate) were generall 400, 400, 400, and 2000 μM, respectively. The test compound is also added in various concentrations to the mixture obtained. A standard mixture without test compound is also prepared using the same amounts of the ingredients. The enzyme reaction, i.e. synthesis of nucleic acid, is started by incubating the mixture at 37° C. For influenza RNA polymerases the temperature is 33° C. The reaction is allowed to proceed for 60 minutes in the assay of influenza and Micrococcus polymerases. For E.coli DNA dependent RNA polymerase the time is 20 min. and for herpes DNA polymerase 30 minutes. The incubation time for calf thymus polymerases is 10 minutes. The incorporation of labelled monomer into trichloroacetic acid insoluble nucleic acid product was measured in the following way. Before and after the incubation period 50 μl are withdrawn from the mixture and applied to filter discs. These are put in 5% trichloroacetic acid solution and washed several times. After drying the discs are measured for radioactivity in a liquid scintillation counter. The difference in radioactivity between samples with and without added compound is used to calculate the inhibition of the polymerase activity. The inhibition is expressed as percentage inhibition using the radioactivity of the standard sample as basis.
A. Inhibition by phosphonoformic acid of type A influenza virion associated RNA polymerase
Influenza A2 Aichi virus was purified according to the method of Pons and Hirst, Virology 34 385 (1968). The assay mixture is described by Bishop, Obijeski and Simpson, J. Virol. 8 66 (1971).

[2] = test system: reverse transcriptase from AMV; experiment: Cell-free reverse transcriptase inhibition, AMV; assay type: biochemical, avian myeloblastosis virus
Description: Reverse transcriptase from various retroviruses have been tested in cell-free assays for inhibition by phosphonoformic acid and phosphonoacetic acid. The assay conditions have been described by Collaborative Research, Inc, 1365 Main Street, Waltham, Mass., USA "Assay kit for mammalian viral reverse transcriptase". BLV and VV were prepared in this laboratory and all other viruses and viral enzyme were obtained from Dr. K Nilsson, Department of Pathology, University of Uppsala and from Boehringer Mannheim, Germany. Phosphonoformic acid (PFA) and phosphonoacetic acid (PAA) were added at pH 7.2 to the reaction mixtures at the start of the reaction.
Rauscher murine leukemia virus; RMuLV, visna virus; VV, avian myeloblastosis virus; AMV, bovine leukemia virus; BLV, baboon endogenous virus; BaEV, simian sarcoma virus; SSV.

visna virus = experiment: Visna virus growth in sheep choroid plexus (SCP) cells: virus titre and morphological changes; assay type: cell-based; conditions: for Morphological changes Day 3 / Morphological changes Day 5 / Morphological changes Day 7: Visna virus infected cells
Description: Visna virus is a retrovirus that can multiply in sheep choroid (SCP) cells. The infection can be followed by titrating medium from infected cells to determine the formation of virus particles and by observing morphological changes as syncytial formation and cell degeneration.
Plates (5 cm) with primary SCP cells in medium 199 with 10% sheep serum were grown to confluence and then infected with 1×10^6 TCID50 (tissue culture infectious doses) of visna virus. One set of plates were left untreated, one set received different concentrations of phosphonoformic acid (PFA) at pH 7.2. Another set received phosphonoacetic acid (PAA) at pH 7.2. Uninfected plates were used as controls with and without PFA and PAA. The virus titre was determined 5 days after infection by the end-point titration method. The plates were checked daily in a light microscope to observe morphological changes.

[3] = set-up: species or system Cynomolgus monkeys; conditions: cynomolgus monkey, in vivo
Description: Phosphonoformic acid, also denoted PFA and phosphonoacetic acid, also denoted PAA were used in the form of their trisodium and disodium salt, respectively. The following equimolar compositions of the two test compounds were used: […]
Two adult male Cynomolgus monkeys were treated once daily for 7 days with PFA or PAA in Arlatone cream. Treatment was done both by topical application of 0.2 ml cream on an area of 3×7 cm on the upper part of the arms and by application of 0.2 ml of cream on the penis and the adjacent skin. During application of cream, the animals were lightly anaesthetized with Ketalar®, given intramuscularly. All applications were 0.2 ml each on day 6/3, 7/3, 8/3, 9/3, 10/3, 11/3 and 12/3 1978.

influenza virus (WSN) = experiment: Influenza virus (WSN) plaque assay on MDCK monolayers; assay type: cell-based, influenza (WSN Wilson Smith Neurotropic type A); conditions: unidentified influenza virus, read-out: Inhibition of plaque
[4] = biological target: HTLV-III reverse transcriptase (Human immunodeficiency virus type 1 group M subtype B, UniProt P03366); experiment: HTLV-III reverse transcriptase assay; assay type: biochemical
Description: The purified enzyme was stored in 50 mM Tris-HCl (pH 7.5), 1 mM dithiothreitol (DTT), 0.01% Triton X-100 and 20% glycerol. Reverse transcriptase assays were carried out in a reaction mixture (50 μl) containing 50 mM Tris-HCl (pH 7.5), 5 mM DTT, 100 mM potassium chloride, 0.01% Triton X-100 or NP40, 10 μg/ml (dT)15.(A)n as template primer and /^3 H/deoxythymidine triphosphate (/^3 H/-dTTP). The reaction mixture was incubated for 1 hour at 37° and the reaction was stopped by the addition of 50 μg of yeast tRNA and 2 ml of 10% solution of trichloroacetic acid (TCA) containing 1 mM sodium pyrophosphate. The samples were filtered on millipore filters (0.45 μm), washed first with 5% TCA solution (5 times) and then with 2 ml of 70% ethanol. The filters were dried under a heat lamp, scintillation fluid was added and the radioactivity counted in a β-scintillation counter.
The effect of foscarnet on purified HTLV-III reverse transcriptase (RT) was assayed as a function of drug concentration.

Sequence of type A influenza virion-associated RNA polymerase (Influenza A virus (A/nt/60/1968(H3N2)), UniProt P03432) (P03432 whole entry, looked up): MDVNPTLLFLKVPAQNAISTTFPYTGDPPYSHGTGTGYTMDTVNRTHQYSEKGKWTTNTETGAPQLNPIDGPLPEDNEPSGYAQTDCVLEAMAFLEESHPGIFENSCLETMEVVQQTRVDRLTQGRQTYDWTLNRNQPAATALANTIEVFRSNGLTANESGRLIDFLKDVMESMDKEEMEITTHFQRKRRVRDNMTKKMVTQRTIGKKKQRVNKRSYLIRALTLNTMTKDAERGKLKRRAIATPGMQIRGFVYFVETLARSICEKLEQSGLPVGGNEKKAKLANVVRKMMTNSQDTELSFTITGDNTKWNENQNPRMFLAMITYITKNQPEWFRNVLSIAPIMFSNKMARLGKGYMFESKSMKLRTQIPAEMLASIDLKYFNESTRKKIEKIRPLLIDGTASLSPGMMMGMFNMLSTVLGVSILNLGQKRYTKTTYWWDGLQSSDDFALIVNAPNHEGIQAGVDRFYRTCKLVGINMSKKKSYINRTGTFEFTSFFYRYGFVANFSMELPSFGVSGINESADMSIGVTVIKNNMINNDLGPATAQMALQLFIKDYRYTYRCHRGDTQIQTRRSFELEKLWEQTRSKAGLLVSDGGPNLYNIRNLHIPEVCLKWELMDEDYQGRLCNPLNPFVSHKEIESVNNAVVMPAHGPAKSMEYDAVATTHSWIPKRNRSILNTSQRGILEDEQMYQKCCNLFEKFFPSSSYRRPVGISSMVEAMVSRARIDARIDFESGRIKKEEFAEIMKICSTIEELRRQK

In the case of `O=C(O)P(=O)(O)O` [phosphonoformic acid], the inhibition at 0.1 µM ([1]; 0.1 μM) is reported as 21%, the inhibition at 0.5 µM ([1]; 0.50 μM) is reported as > 50% and the inhibition at 1 µM ([1]; 1.00 μM) is reported as 79%. For the same compound, the inhibition at 10 µM ([1]; 10 μM) was 91%, the inhibition at 100 µM ([1]; 100 μM) was 95% and the inhibition at 500 µM ([1]; 500 μM) was 93%. It also gave a Percent inhibition ([2]; 10 μM, endogenous template) of 15%, a Percent inhibition ([2]; 10 μM, purified enzyme, (rA)n.(dT)10) of 45% and a Percent inhibition ([2]; 10 μM, template/primer (rA)n.(dT)10) of 43%. For the same compound, the Percent inhibition ([2]; 100 μM, endogenous template) was 49%, the Percent inhibition ([2]; 100 μM, purified enzyme, (rA)n.(dT)10) was 96% and the Percent inhibition ([2]; 100 μM, template/primer (rA)n.(dT)10) was 94%. For the same compound, the Percent inhibition ([2]; 500 μM, endogenous template) was 70%, the Percent inhibition ([2]; 500 μM, purified enzyme, (rA)n.(dT)10) was > 99% and the Percent inhibition ([2]; 500 μM, template/primer (rA)n.(dT)10) was 99%. For the same compound, the “Morphological changes Day 3” value (visna virus; 100 μM) was “-”, the “Morphological changes Day 5” value (visna virus; 100 μM) was “+ (10% cell degeneration)” and the “Morphological changes Day 7” value (visna virus; 100 μM) was “++ (25% cell degeneration)”. For the same compound, the “Morphological changes Day 3” value (visna virus; 500 μM) was “-”, the “Morphological changes Day 5” value (visna virus; 500 μM) was “-” and the “Morphological changes Day 7” value (visna virus; 500 μM) was “+ (10% cell degeneration)”. For the same compound, the IC50 (visna virus; Visna-maedi virus, 120 h, SCP cells, virus titre 5 days after infection, read-out: concentration giving 50 percent reduction of virus multiplication) was 20 µM, the “Result (skin irritation), area of application penis” value [3] was “No symptoms” and the “Result (skin irritation), area of application upper arm” value [3] was “No symptoms”. The inhibition at 100 µM (influenza virus (WSN)) was 10%, the inhibition at 250 µM (influenza virus (WSN)) was 50% and the inhibition at 500 µM (influenza virus (WSN)) was 95%. The IC50 ([4]; purified enzyme from different virus isolates, (dT)15.(A)n template primer, read-out: concentration causing 50% inhibition of HTLV-III reverse transcriptase activity) was 0.1 to 2 µM and the “type of inhibition of reverse transcriptase” value ([4]; with respect to substrate and template) was “noncompetitive with respect to substrate and uncompetitive with respect to template”.
